Measurements as given in ChEMBL document CHEMBL4613228, “Identification of small-molecule urea derivatives as novel NAMPT inhibitors via pharmacophore-based virtual screening” (Bioorg Med Chem, 2020).

What was measured:
HepG2 = assay: Cytotoxicity against human HepG2 cells assessed as reduction in cell viability measured after 72 hrs by SRB assay; type: functional, cell-based; settings: for IC50: HepG2, 72 h
[1] = molecular target: Nicotinamide phosphoribosyltransferase (Homo sapiens, UniProt P43490); assay: Inhibition of NAMPT (unknown origin) using NAM and PRPP as substrates incubated for 2 hrs in presence of ATP by fluorimetric plate reader assay
Nicotinamide phosphoribosyltransferase, sequence (P43490 whole entry): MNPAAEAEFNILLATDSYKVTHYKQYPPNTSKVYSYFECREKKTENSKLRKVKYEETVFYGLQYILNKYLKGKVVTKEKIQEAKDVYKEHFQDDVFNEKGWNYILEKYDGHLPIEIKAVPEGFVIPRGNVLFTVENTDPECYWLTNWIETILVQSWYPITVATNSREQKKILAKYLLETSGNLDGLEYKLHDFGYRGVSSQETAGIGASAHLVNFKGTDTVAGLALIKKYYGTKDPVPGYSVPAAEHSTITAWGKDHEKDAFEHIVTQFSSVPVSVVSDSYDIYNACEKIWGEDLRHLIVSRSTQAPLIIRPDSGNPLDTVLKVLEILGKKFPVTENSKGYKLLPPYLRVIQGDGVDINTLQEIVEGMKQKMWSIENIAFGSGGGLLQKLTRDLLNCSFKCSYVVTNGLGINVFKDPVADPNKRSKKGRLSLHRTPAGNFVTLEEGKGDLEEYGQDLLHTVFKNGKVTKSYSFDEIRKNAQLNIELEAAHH

SMILES: O=C(/C=C/c1cccnc1)NCCCCC1CCN(C(=O)c2ccccc2)CC1 [DAPORINAD]
- IC50 (HepG2): 0.0187 µM

SMILES: CCCOC(=O)c1ccc(NC(=O)NCc2cccnc2)cc1
- IC50 [1]: 2.15 µM
- inhibition (HepG2): Dose-dependent effect
- IC50 (HepG2): 15.2 µM

SMILES: CCOC(=O)c1ccc(NC(=O)NCc2ccnc(-n3ccnc3C)c2)cc1
- IC50 [1]: 7.31 µM
- IC50 (HepG2): 24.3 µM
